# In patent publication US7709475B2, “Selective inhibitors against Cdk4 and Cdk6 having aminothiazole skeleton” (Banyu Pharmaceutical Co., Ltd., priority 2004, dated 2010):
# Key:
# Format in all cases: biochemical
# cyclin A-Cdk2 = molecular target: T1, cyclin A-Cdk2 (Homo sapiens, UniProt P24941); experiment: Cdk2 inhibitory action: cyclin A-Cdk2 kinase activity; settings: cyclin A-Cdk2, 50 μM ATP
# T1 construct: made in house; host or cells: insect cell Sf9 (baculovirus)
# Description: In the same manner as in the case of cyclin D2-Cdk4, the cDNA of Cdk2, and the cDNA of a fusion protein of cyclin A, an activating factor of Cdk2, and glutathione S-transferase, were integrated into a baculovirus expression vector to prepare a recombinant baculovirus. This was co-transfected into insect cell Sf9 to express an active complex of the cyclin A/glutathione S-transferase fusion protein-Cdk2 at a high level. The cells were recovered and solubilized, then the active complex was adsorbed onto Glutathione Sepharose, and a cyclin A-Cdk2 complex was recovered using Precision Protease and was purified by HPLC column chromatography.
# For the measurement of the activity of cyclin A-Cdk2, a synthetic peptide (Ala-Lys-Ala-Lys-Lys-Thr-Pro-Lys-Lys-Ala-Lys-Lys) was used as the substrate.
# (§1) The reaction was performed by partially modifying the method of Kitagawa et al. [Oncogene, Vol. 7, 1067-1074 (1992)]. The volume of the reaction solution was 21.1 μL, and to the R buffer, purified cyclin A-Cdk2, 0.01 mg/mL of the substrate peptide, 50 μM of non-labeled adenosine triphosphate (ATP), and 1 μCi of [γ-33P]-labeled ATP (2000 to 4000 Ci/mmole) were added to react at 30° C. for 30 minutes. Then, 10 μL of 350 mM phosphate buffer was added to the reaction system to terminate the reaction. The substrate peptide was adsorbed onto P81 paper filter on a 96-well plate, and then washed several times with 75 mM phosphate buffer. The radioactivity of the substrate peptide was measured with a liquid scintillation counter.
# (§2) Addition of the compound according to the invention to the reaction system was carried out by first preparing a dilution series of solutions of the compound in dimethylsulfoxide (DMSO), and adding 1.1 μL of the dilutions. A control was provided by adding 1.1 μL of DMSO to the reaction system.
# A representative compound of the compounds according to the invention was selected, and the IC50 value of this compound for the cyclin A-Cdk2 activity was determined.
# cyclin H-Cdk7 = molecular target: T2, cyclin H-Cdk7 (Homo sapiens, UniProt P50613); experiment: Cdk7 inhibitory action: cyclin H-Cdk7 kinase activity; settings: cyclin H-Cdk7, 50 μM ATP
# T2 construct: made in house; host or cells: insect cell Sf9 (baculovirus)
# Description: The cDNA of Cdk7, and the cDNA of a fusion protein of cyclin H, an activating factor of Cdk7, and glutathione S-transferase, were integrated into a baculovirus expression vector to prepare a recombinant baculovirus. This was co-transfected into insect cell Sf9 to express an active complex of the cyclin H/glutathione S-transferase fusion protein-Cdk7 at a high level. The cells were recovered and solubilized, then the active complex was adsorbed onto Glutathione Sepharose, and a cyclin H-Cdk7 active complex was recovered using Precision Protease.
# For the measurement of the activity of cyclin H-Cdk7, a synthetic peptide ([…] was used as the substrate.
# as §1, with “cyclin H-Cdk7, 25 μM” for “cyclin A-Cdk2, 0.01 mg/mL”, “for 45” for “for 30”
# as §2
# A representative compound of the compounds according to the invention was selected, and the IC50 value of this compound for the cyclin H-Cdk7 activity was determined.
# cyclin T1-Cdk9 = molecular target: T3, cyclin T1-Cdk9 (Homo sapiens, UniProt P50750); experiment: Cdk9 inhibitory action: cyclin T1-Cdk9 kinase activity; settings: cyclin T1-Cdk9, 50 μM ATP
# T3 construct: made in house; host or cells: insect cell Sf9 (baculovirus)
# Description: The cDNA of Cdk9, and the cDNA of a fusion protein of cyclin T1, an activating factor of Cdk9, and glutathione S-transferase, were integrated into a baculovirus expression vector to prepare a recombinant baculovirus. This was co-transfected into insect cell Sf9 to express an active complex of the cyclin T1/glutathione S-transferase fusion protein-Cdk9 at a high level. The cells were recovered and solubilized, and the active complex was adsorbed onto Glutathione Sepharose, and then was purified by elution with 10 mM reductive glutathione. The solution containing the eluted active complex was dialyzed against B buffer (composition: 20 mM Tris-hydrochloric acid buffer (pH 7.4)/200 mM sodium chloride/0.1% Tween-20/10 mM 2-mercaptoethanol/1 mM dithiothreitol/10% glycerol) to remove the reductive glutathione.
# For the measurement of the activity of cyclin T1-Cdk9, a synthetic peptide ([…] was used as the substrate.
# as §1, with “cyclin T1-Cdk9, 25 μM” for “cyclin A-Cdk2, 0.01 mg/mL”, “and 0.5” for “and 1”, “for 20” for “for 30”
# Addition of the compound according to the invention to the reaction system was carried out by first preparing a dilution series of solutions of the compound in dimethylsulfoxide (DMSO), and adding […] of the dilutions. A control was provided by adding 1.1 μL of DMSO to the reaction system.
# A representative compound of the compounds according to the invention was selected, and the IC50 value (nM) of this compound for the cyclin T1-Cdk9 activity was determined.
# T2 sequence (P50613 whole entry): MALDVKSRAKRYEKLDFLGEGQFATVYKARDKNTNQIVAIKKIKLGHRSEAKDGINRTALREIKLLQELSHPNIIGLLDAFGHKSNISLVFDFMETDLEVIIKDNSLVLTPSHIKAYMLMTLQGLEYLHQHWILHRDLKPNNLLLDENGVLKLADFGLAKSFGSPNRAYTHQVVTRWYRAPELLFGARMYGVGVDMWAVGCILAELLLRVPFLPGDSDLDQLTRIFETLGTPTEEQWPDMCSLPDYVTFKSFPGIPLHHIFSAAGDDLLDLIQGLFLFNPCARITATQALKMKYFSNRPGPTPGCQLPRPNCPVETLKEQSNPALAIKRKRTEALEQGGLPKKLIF
# T2 sequence (P51946 whole entry partner): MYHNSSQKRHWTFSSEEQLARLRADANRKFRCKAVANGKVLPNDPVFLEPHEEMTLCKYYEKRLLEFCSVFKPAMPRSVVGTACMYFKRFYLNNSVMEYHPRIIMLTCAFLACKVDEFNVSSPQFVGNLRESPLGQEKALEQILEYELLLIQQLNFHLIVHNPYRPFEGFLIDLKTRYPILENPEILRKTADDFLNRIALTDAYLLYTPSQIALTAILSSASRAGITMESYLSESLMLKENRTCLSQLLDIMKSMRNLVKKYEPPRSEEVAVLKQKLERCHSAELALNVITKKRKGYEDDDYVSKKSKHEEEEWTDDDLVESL
# T3 sequence (P50750 whole entry): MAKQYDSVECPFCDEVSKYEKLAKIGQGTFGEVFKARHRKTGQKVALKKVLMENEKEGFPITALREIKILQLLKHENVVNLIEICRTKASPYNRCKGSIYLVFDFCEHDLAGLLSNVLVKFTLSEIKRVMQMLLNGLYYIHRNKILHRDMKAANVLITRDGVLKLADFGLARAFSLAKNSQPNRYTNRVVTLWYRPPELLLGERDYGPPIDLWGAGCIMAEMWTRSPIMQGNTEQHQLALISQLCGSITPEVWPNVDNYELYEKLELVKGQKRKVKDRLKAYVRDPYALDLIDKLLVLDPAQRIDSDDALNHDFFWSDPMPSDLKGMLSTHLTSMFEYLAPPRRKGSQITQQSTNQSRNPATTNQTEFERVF
# T3 sequence (O60563 whole entry partner): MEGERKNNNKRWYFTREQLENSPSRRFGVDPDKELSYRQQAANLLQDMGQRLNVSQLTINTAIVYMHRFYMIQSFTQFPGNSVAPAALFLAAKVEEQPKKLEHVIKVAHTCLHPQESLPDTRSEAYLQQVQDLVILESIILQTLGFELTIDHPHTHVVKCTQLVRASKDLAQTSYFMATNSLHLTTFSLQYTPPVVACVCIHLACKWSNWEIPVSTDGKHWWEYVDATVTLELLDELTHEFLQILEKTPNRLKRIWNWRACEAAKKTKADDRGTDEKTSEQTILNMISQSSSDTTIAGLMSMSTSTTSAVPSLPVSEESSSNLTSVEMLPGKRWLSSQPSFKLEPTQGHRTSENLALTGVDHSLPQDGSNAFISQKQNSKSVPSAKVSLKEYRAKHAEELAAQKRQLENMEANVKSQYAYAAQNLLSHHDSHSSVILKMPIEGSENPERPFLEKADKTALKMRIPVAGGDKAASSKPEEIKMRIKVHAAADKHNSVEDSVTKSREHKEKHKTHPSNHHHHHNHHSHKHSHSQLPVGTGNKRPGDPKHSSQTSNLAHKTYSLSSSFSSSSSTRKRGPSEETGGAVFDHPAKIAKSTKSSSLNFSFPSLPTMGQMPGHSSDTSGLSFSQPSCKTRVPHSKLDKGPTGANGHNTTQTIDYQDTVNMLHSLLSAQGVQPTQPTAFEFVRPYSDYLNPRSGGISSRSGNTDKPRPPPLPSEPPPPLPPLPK
SMILES,IC50 (cyclin A-Cdk2) [nM],IC50 (cyclin H-Cdk7) [nM],IC50 (cyclin T1-Cdk9) [nM]
"Cc1cc(-c2cnc(Nc3cnc(CN4CCN(C)CC4)cn3)s2)nc(OC2CCCCC2)n1 [Example 1, 5-[2-(cyclohexyloxy)-6-methyl-4-pyrimidinyl]-2-[5-(4-methyl-1-piperazinyl)methyl-2-pyrazinyl]amino-1,3-thiazole]",1700,530,2500
"Cc1cc(-c2cnc(Nc3cnc(CN4CCC(N(C)C)C4)cn3)s2)nc(OC2CCCCC2)n1 (centres unmarked) [Example 13, 5-[2-(cyclohexyloxy)-6-methyl-4-pyrimidinyl]-2-[5-(3-dimethylamino-1-pyrrolidinyl)methyl-2-pyrazinyl]amino-1,3-thiazole]",850,370,430
"Cc1cc(-c2cnc(Nc3cnc(CN4CCN(C)CC4)cn3)s2)nc(NC2CCCCC2)n1 [Example 55, 5-[2-(cyclohexylamino)-6-methyl-4-pyrimidinyl]-2-[5-(4-methyl-1-piperazinyl)methyl-2-pyrazinyl]amino-1,3-thiazole]",1900,460,1400
"Cc1cc(-c2cnc(Nc3cnc(CN4CCCC4)cn3)s2)nc(SC2CCCCC2)n1 [Example 93, 5-[2-(cyclohexylthio)-6-methyl-4-pyrimidinyl]-2-[5-(1-pyrrolidinyl)methyl-2-pyrazinyl]amino-1,3-thiazole]",480,140,230
"Cc1cc(-c2cnc(Nc3cnc(CN4CCC(N(C)C)C4)cn3)s2)nc(SC2CCCCC2)n1 (centres unmarked) [Example 94, 5-[2-(cyclohexylthio)-6-methyl-4-pyrimidinyl]-2-[5-(3-dimethylamino-1-pyrrolidinyl)methyl-2-pyrazinyl]amino-1,3-thiazole]",1700,91,270
"Cc1cc(-c2cnc(Nc3cnc(CNC(C)C)cn3)s2)nc(SC2CCCCC2)n1 [Example 96, 5-[2-(cyclohexylthio)-6-methyl-4-pyrimidinyl]-2-[5-(isopropylamino)methyl-2-pyrazinyl]amino-1,3-thiazole]",600,160,140
"Cc1cc(-c2cnc(Nc3cnc(CNCCO)cn3)s2)nc(SC2CCCCC2)n1 [Example 99, 5-[2-(cyclohexylthio)-6-methyl-4-pyrimidinyl]-2-[5-(2-hydroxyethylamino)methyl-2-pyrazinyl]amino-1,3-thiazole]",,120,98
"Cc1cc(-c2cnc(Nc3cnc(CN4CCN(C)CC4)cn3)s2)nc(Sc2ccccc2Cl)n1 [Example 109, 5-[2-(2-chlorophenylthio)-6-methyl-4-pyrimidinyl]-2-[5-(4-methyl-1-piperazinyl)methyl-2-pyrazinyl]amino-1,3-thiazole]",1000,280,640
"CC(=O)N1CCN(Cc2ccc(Nc3ncc(-c4cc(C)nc(OC5CCCCC5)n4)s3)nc2)CC1 [Example 125, 5-[2-(cyclohexyloxy)-6-methyl-4-pyrimidinyl]-2-[5-(4-acetyl-1-piperazinyl)methyl-2-pyridyl]amino-1,3-thiazole]",1600,370,650
"Cc1cc(-c2cnc(Nc3ccc(CN4CCC[C@H]4CO)cn3)s2)nc(NC2CCCCC2)n1 [Example 137, (2S)-5-[2-(cyclohexylamino)-6-methyl-4-pyrimidinyl]-2-[5-(2-hydroxymethyl-1-pyrrolidinyl)methyl-2-pyridyl]amino-1,3-thiazole]",4500,1200,1100
